Like-named read-outs stand apart in the source and are kept apart here.
Columns and labels:
Format in all cases: cell-based
[1] = biological target: protein kinases (human kinome) (Homo sapiens, UniProt P11802)
Excerpt: (§1) Although development of targeted protein degraders requires a POI binder, among already-liganded proteins such as kinases, it was hypothesized that different targets would have a different propensity for current approaches to degrader-mediated destruction, which was termed ‘degradability’. […] It was rationalized that the probability of identifying the same kinase as a false positive in multiple treatments is low, therefore this analysis served to also assess the robustness of our data and subsequent interpretations. […] Overall, 62 protein kinases were degraded in more than 10 independent treatments, and remarkably, 9 of these (CDK4, AURKA, FER, WEE1, BLK. LIMK2, CDK6, GAK, LIMK1) were each degraded in at least 40 of the 154 independent treatments, emphasizing their predisposition to induced degradation (FIG. 1G; Appendix I).
(§2) Next, the frequency of degradation assessment was corrected for over-representation of molecules in the full dataset by omitting replicate profiling of compounds under different experimental conditions, to remove any bias. […] Unsurprisingly, the top degradable kinases mirror those from the previous analysis (CDK4, AURKA, FER, WEE1, BLK), confirming that in sufficiently large datasets, even with over-representation of certain molecules, frequency of degradation is a good measure of general tractability.

[2] = biological target: protein kinases (human kinome) (Homo sapiens, UniProt P30291)
Chain of protein kinases (human kinome) (Homo sapiens, UniProt P30291) (P30291 whole entry): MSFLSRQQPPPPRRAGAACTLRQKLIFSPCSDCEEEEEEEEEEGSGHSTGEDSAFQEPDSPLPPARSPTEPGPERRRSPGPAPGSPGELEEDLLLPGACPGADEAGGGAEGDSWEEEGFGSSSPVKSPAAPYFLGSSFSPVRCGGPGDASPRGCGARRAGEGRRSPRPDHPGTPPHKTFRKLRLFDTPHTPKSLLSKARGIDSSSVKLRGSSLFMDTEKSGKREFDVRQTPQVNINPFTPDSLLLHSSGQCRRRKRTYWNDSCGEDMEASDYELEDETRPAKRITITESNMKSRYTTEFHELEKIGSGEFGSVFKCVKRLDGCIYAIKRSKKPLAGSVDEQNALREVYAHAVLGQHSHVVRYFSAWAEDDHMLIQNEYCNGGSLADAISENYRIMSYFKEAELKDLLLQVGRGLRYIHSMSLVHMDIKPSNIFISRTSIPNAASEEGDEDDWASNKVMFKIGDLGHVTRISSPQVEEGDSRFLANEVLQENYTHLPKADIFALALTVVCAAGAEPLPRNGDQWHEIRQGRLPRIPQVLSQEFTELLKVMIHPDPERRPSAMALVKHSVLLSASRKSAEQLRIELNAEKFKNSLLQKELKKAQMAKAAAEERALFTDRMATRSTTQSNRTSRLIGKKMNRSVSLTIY
Excerpt: as §1, §2

[3] = tested on: protein kinases (human kinome)
Excerpt: as §1, §2

[4] = biological target: protein kinases (human kinome) (Homo sapiens, UniProt Q00537)
Chain of protein kinases (human kinome) (Homo sapiens, UniProt Q00537) (Q00537 whole entry): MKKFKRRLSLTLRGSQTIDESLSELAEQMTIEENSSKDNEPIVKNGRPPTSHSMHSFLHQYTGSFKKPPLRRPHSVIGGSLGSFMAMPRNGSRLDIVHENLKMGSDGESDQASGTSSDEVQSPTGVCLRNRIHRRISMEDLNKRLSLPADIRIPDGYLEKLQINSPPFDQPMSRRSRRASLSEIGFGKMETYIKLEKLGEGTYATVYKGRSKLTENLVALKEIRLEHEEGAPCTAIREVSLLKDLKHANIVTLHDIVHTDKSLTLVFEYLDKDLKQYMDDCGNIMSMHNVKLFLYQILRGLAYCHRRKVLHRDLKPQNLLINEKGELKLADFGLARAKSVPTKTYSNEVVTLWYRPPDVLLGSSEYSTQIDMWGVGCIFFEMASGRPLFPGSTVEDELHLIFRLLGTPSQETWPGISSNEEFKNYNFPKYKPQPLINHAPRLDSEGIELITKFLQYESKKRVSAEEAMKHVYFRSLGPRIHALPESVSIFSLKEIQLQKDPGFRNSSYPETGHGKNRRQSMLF
Excerpt: as §1, §2

[5] = biological target: protein kinases (human kinome) (Homo sapiens, UniProt P53671); settings: experiment wp056
Chain of protein kinases (human kinome) (Homo sapiens, UniProt P53671) (P53671 whole entry): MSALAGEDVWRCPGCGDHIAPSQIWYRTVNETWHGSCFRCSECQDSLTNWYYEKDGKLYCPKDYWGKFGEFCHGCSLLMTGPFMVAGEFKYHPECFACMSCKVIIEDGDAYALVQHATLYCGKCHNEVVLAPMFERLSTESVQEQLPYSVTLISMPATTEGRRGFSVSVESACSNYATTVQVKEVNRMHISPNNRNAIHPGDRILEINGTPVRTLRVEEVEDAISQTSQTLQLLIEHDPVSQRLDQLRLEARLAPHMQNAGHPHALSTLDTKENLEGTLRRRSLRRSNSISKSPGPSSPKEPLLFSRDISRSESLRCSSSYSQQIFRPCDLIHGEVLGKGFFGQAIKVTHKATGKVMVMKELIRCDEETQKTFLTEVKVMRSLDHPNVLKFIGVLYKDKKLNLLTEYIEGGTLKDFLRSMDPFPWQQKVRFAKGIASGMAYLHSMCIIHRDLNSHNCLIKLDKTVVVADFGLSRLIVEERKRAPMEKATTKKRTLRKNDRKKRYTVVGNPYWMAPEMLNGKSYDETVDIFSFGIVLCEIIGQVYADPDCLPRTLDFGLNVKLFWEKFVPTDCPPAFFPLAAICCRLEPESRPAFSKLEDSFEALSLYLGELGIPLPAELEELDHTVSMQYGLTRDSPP
Excerpt: as §1, §2

[6] = biological target: protein kinases (human kinome) (Homo sapiens, UniProt P53667); settings: LIMK1 (P53667-1), experiment wp056
Chain of protein kinases (human kinome) (Homo sapiens, UniProt P53667) (P53667 whole entry): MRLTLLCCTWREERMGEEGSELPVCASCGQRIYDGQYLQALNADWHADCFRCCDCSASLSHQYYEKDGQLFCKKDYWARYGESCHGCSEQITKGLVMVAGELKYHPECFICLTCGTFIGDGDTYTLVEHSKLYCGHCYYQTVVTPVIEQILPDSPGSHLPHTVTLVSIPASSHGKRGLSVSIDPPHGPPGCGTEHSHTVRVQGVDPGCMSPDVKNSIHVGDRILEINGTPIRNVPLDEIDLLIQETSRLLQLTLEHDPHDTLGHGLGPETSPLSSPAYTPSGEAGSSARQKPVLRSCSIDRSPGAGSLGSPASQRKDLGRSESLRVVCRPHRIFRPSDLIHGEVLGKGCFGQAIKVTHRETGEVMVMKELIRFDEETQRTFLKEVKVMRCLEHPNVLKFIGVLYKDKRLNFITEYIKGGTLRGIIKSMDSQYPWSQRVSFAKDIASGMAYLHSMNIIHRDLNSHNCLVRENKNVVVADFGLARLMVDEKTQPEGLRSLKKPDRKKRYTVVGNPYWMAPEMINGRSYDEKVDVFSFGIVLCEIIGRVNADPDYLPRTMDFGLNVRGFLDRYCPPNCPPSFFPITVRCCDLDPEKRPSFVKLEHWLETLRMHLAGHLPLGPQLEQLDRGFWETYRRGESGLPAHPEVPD
Excerpt: as §1, §2

[7] = biological target: protein kinases (human kinome) (Homo sapiens, UniProt Q2M2I8)
Chain of protein kinases (human kinome) (Homo sapiens, UniProt Q2M2I8) (Q2M2I8 whole entry): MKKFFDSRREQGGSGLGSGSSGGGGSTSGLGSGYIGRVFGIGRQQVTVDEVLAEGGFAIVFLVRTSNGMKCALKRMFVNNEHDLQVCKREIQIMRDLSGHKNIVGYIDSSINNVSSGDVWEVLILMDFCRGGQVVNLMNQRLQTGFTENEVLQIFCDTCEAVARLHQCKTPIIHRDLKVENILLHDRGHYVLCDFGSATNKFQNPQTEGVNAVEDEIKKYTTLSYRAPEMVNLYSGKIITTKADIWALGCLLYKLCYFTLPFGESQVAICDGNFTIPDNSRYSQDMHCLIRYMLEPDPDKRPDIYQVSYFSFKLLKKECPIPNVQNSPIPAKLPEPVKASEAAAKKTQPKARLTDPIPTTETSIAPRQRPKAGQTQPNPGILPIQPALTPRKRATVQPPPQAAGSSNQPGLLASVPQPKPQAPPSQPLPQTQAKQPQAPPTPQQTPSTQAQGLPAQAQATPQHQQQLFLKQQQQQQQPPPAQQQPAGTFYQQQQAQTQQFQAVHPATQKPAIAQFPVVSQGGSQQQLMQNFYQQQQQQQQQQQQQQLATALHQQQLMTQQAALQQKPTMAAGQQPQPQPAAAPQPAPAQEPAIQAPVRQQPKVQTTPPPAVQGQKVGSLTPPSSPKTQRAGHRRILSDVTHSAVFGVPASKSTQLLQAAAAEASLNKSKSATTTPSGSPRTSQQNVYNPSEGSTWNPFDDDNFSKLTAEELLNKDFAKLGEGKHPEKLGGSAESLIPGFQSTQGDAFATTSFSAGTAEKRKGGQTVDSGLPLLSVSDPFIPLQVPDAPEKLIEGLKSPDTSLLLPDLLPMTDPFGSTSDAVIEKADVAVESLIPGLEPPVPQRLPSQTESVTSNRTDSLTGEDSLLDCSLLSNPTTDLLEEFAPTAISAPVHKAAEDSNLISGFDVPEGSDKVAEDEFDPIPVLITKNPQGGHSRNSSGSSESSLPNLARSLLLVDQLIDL
Excerpt: as §1, §2

[8] = biological target: T1, protein kinases (human kinome) (Homo sapiens, UniProt O14965)
T1 sequence (O14965 1-403): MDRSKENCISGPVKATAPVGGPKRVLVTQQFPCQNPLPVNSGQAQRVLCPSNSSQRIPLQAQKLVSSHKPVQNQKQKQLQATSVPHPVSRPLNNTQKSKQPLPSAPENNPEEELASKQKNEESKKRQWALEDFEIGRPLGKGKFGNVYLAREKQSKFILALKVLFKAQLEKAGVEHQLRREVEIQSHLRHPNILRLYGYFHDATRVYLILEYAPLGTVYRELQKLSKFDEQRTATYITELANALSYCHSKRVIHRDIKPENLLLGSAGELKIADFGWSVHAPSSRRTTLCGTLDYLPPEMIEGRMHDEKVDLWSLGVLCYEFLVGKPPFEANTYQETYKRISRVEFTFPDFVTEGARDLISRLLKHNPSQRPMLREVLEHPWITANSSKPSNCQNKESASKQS
Excerpt: as §1, §2

[9] = biological target: T2, protein kinases (human kinome) (Homo sapiens, UniProt O14976)
T2 sequence (O14976 1-1311): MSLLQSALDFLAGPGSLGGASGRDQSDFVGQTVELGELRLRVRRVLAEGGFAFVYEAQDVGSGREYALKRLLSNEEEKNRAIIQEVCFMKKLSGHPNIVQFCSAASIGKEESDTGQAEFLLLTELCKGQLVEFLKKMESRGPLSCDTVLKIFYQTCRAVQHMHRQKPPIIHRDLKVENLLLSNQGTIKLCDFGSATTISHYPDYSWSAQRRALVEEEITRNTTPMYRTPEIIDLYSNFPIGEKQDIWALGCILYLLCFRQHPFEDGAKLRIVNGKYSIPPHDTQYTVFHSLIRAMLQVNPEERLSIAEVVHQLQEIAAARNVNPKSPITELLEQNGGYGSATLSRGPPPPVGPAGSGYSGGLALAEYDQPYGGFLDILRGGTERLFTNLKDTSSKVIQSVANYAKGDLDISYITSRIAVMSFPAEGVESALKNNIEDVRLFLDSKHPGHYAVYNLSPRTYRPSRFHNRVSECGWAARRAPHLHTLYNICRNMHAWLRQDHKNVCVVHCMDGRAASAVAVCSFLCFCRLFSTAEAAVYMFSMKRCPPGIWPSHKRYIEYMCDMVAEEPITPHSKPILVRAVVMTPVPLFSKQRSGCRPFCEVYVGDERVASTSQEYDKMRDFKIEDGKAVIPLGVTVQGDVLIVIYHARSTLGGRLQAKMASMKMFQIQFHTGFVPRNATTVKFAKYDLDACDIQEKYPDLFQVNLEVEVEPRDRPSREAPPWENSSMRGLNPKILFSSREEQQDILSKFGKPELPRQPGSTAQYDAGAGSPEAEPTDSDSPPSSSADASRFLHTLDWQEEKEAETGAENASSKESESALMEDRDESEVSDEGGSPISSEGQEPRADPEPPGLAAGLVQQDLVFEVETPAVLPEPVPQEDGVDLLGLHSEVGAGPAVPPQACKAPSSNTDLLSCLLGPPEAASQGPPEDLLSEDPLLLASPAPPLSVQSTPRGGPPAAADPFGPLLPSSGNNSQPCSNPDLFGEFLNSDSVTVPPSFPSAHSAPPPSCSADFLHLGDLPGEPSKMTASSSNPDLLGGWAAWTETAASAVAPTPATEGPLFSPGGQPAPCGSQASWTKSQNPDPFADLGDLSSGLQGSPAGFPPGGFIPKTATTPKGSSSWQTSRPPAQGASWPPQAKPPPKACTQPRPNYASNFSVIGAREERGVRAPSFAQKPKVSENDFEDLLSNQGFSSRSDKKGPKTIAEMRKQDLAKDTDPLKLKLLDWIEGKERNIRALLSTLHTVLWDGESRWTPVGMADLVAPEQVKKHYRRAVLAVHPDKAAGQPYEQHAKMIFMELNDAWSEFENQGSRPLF
Excerpt: as §1, §2

[10] = AURKB Q96GD4-5, experiment wp080

Chain of protein kinases (human kinome) (Homo sapiens, UniProt P11802) (P11802 whole entry): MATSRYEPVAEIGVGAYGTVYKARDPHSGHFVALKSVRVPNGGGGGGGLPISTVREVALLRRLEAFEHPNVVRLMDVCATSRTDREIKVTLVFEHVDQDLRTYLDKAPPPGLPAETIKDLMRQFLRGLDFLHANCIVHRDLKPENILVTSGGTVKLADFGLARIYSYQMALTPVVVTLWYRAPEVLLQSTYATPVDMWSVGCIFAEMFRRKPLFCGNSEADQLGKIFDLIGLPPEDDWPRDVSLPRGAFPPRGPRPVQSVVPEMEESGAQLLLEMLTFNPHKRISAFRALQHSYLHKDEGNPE

CC(=O)c1c(C)c2cnc(Nc3ccc(N4CCN(CCCCNC(=O)CNc5cccc6c5C(=O)N(C5CCC(=O)NC5=O)C6=O)CC4)cn3)nc2n(C2CCCC2)c1=O (stereo not drawn) [BSJ.01.147]
logFC CDK4 (P11802) ([1]; experiment wp005): −1.415
logFC CDK4 (P11802) ([1]; experiment wp084): −1.8
logFC of WEE1 ([2]; WEE1 P30291-1, experiment wp084): −0.5617
logFC WEE1 (P30291-1) ([2]; experiment wp005): −0.447
logFC WEE1 (P30291-1) ([2]; experiment wp084): −0.5617

CC(C)(C)c1nc(-c2cccc(NS(=O)(=O)c3c(F)cccc3F)c2F)c(-c2ccnc(NCCOCCNC(=O)CCOCCOCCNc3cccc4c3C(=O)N(C3CCC(=O)NC3=O)C4=O)n2)s1 (stereo not drawn) [DD-03-106, N-(2-(2-((4-(2-(tert-butyl)-4-(3-((2,6-difluorophenyl)sulfonamido)-2-fluorophenyl)thiazol-5-yl)pyrimidin-2-yl)amino)ethoxy)ethyl)-3-(2-(2-((2-(2,6-dioxopiperidin-3-yl)-1,3-dioxoisoindolin-4-yl)amino)ethoxy)ethoxy)propenamide]
kinases the bifunctional compound degrades ([3]; as stated for the structure in the embodiments): AURKA, BCKDK, CDK1, CDK16, CDK17, CDK2, CDK3, CDK4, CDK6, COQ8A, COQ8B, CSK, EIF2AK2, LIMK1, LIMK2, MAP3K20, NLK, PLK1, PDK1, PDK2, and TESK2
Kinase hits ([3]; kinases significantly downregulated vs DMSO (fold change cutoff −1.25, P-value<0.01), ≤8 h, 0.1-5 μM degrader, 7 cell lines): AURKA, BCKDK, CDK1, CDK16, CDK17, CDK2, CDK3, CDK4, CDK6, COQ8A, COQ8B, CSK, EIF2AK2, LIMK1, LIMK2, MAP3K20, NLK, PLK1, PDK1, PDK2, TESK2
Total no. kinase hits ([3]; number of degraded kinases per library compound): 21
preference for degrading CDK17 [4]: strong preference for degrading CDK17

Cc1ncsc1-c1ccc([C@H](C)NC(=O)[C@@H]2C[C@@H](O)CN2C(=O)[C@@H](NC(=O)CCOCCOCCNc2nccc(-c3sc(C(C)(C)C)nc3-c3cccc(NS(=O)(=O)c4c(F)cccc4F)c3F)n2)C(C)(C)C)cc1 [DD.03.156]
logFC LIMK2 ([5]; LIMK2 (P53671), down): −1.703
logFC of LIMK2 ([5]; LIMK2 P53671): −1.703
logFC of CDK17 ([4]; Accession Q00537, experiment wp056): −1.825
logFC CDK17 (Q00537) ([4]; experiment wp056, direction of change down): −1.825
logFC LIMK1 ([6]; direction down): −1.037
logFC LIMK1 ([6]; down): −1.037

CS(=O)(=O)c1ccc(-c2cccn3nc(Nc4cccc(N5CCN(CCCCCCNC(=O)COc6cccc7c6C(=O)N(C6CCC(=O)NC6=O)C7=O)CC5)c4)nc23)cc1 (stereo not drawn) [JWG.120]
logFC AAK1 ([7]; AAK1 (Q2M218-1), experiment wp134, down): −0.3362
logFC AAK1 ([7]; AAK1, accession Q2M218-1, experiment wp134, direction of change down): −0.3362
logFC AURKA (O14965) ([8]; experiment wp134): −1.562

Cc1cnc(Nc2ccc(N3CCN(CCOCCOCCC(=O)N[C@H](C(=O)N4C[C@H](O)C[C@H]4C(=O)N[C@@H](C)c4ccc(-c5scnc5C)cc4)C(C)(C)C)CC3)cc2)nc1Nc1cccc(S(=O)(=O)NC(C)(C)C)c1 [JWG.122]
logFC AAK1 ([7]; AAK1 (Q2M218-1), experiment wp088, down): −0.6335
logFC AAK1 ([7]; AAK1, accession Q2M218-1, experiment wp088, direction of change down): −0.6335
logFC of GAK (O14976) ([9]; Experiment wp088, down): −0.3586
logFC GAK ([9]; GAK (O14976), direction down, experiment wp088): −0.3586

CC(=O)c1c(C)c2cnc(Nc3ccc(N4CCN(CC(=O)NCCOCCOCCOCCNc5cccc6c5C(=O)N(C5CCC(=O)NC5=O)C6=O)CC4)cn3)nc2n(C2CCCC2)c1=O (stereo not drawn) [YKL.6.102]
logFC CDK4 (P11802) ([1]; experiment wp005): −0.642
logFC WEE1 (P30291-1) ([2]; experiment wp005): −0.3649

COc1cc(Nc2ncc3c(n2)-c2ccc(Cl)cc2C(c2c(F)cccc2OC)=NC3)ccc1C(=O)NCCCOCCOCCOCCCNC(=O)COc1cccc2c1C(=O)N(C1CCC(=O)NC1=O)C2=O (stereo not drawn) [dAURK.4]
logFC [3, 10]: −0.3932
logFC AURKB [3, 10]: −0.3932
logFC AURKA (O14965) ([8]; experiment wp080): −1.055

From US20240269139A1, “COMPOUNDS FOR TARGETED PROTEIN DEGRADATION OF KINASES” (DANA-FARBER CANCER INSTITUTE, INC., priority 2020, published 2024)
